Test results: US9937235B2, “Lipidated peptides as anti-obesity agents” (USTAV ORGANICKE CHEMIE A BIOCHEMIE AKADEMIE VED CR, V.V.I, priority 2012, dated 2018)
Where a SMILES comes first, the peptide text is derived from it. [ ]: non-standard residue; d: D form. The star is where a group is joined. 1Nal = N[C@@H](Cc1cccc2ccccc12)C(=O)O; Myristoyl = CCCCCCCCCCCCCC(=O)*; Lauroyl = CCCCCCCCCCCC(=O)*; Nle = CCCC[C@H](N)C(=O)O; Octanoyl = CCCCCCCC(=O)*; Dap = NC[C@H](N)C(=O)O

Key:
[1] = tested on: fasted C57BL/6 mice; assay: Food intake in fasted mice after SC administration; format: in vivo, mouse; conditions: SC administration; for % control: food intake vs saline
Outline: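 Male C57BL/6 mice, food-deprived 17 h, received saline, PrRP or lipidated analogs either SC at 1-10 mg/kg or ICV into the third ventricle at 4 nmol/mouse.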

[2] = molecular target: T1, rat PrRP receptor (GPR10) in RC-4B/C cells (Rattus norvegicus, UniProt Q64121); assay: Competitive binding to rat pituitary RC-4B/C cells; conditions: ^125I-rat PrRP31, RC-4B/C cells
T1 construct: host or cells: RC-4B/C rat pituitary cell line
T1 sequence (Q64121 1-370): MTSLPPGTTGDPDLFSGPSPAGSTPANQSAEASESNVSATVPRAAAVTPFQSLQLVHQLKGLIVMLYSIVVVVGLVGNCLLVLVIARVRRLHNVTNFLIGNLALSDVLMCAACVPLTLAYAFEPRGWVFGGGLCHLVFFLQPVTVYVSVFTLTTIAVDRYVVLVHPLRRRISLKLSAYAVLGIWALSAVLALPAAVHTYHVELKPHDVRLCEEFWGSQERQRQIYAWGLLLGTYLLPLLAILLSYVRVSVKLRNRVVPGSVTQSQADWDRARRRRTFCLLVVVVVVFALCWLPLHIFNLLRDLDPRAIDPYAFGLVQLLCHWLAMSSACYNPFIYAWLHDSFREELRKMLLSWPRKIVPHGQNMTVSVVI
Description: Competitive binding experiments were performed according to Motulsky and Neubig (Motulsky, A., et al., “Analyzing radioligand binding data,” Curr Protoc Neurosci, Chapter 7, Unit 7.5, 2002). The rat pituitary cell line RC-4B/C (ATCC, Manassas, USA) was grown on 24-well plates which had their bottom coated with polyethyleneimine. The cells were grown to the optimal density of 300-450 thousand per well. […] Plates were incubated for 60 minutes at room temperature. After incubation, the cells were solubilized in 0.1 mol/l solution of NaOH and the radioactivity bound to the cells was counted using a γ-counter. The experiments were performed in duplicate and repeated at least three times. For evaluation of competitive binding experiments, the program Graph Pad Prism Software (San Diego, Calif., USA) was used. A method of nonlinear regression assuming one-site binding was used.

[3] = tested on: MAPK/ERK1/2 signaling pathway in RC-4B/C cells; assay: MAPK/ERK1/2 signaling in RC-4B/C cells (Western blot); format: cell-based, rat; conditions: 10^−6 mol·l^−1, 5 minute incubation
Description: RC-4B/C cells, which were used to determine if lipidated PrRP20 analogs are able to initiate the MAPK/ERK1/2 signaling pathway, were grown in 6-well plates up to the optimal density of […]. Seventeen hours before sample harvest, the growth medium was replaced by a serum-free medium lacking epidermal growth factor (EGF). The respective lipidated PrRP analog was added to each well in the final concentration of 10^−6 mol·l^−1. After a 5 minute incubation at 37° C., the plate was placed on ice and each well was rinsed three times with PBS pH 7.4 (137 mmol·l^−1 NaCl, 2.7 mmol·l^−1 KCl, 8 mmol·l^−1 Na2HPO4.2H2O a 1.76 mmol·l^−1 KH2PO4) and cooled to 4° C. […] Samples were collected in at least three independent experiments.
To determine if the lipidated PrRP20 analogs initiated the MAPK/ERK1/2 signaling pathway, Western blot analysis was used. Electrophoresis was performed on 5%/12% polyacrylamide gel in the presence of SDS (SDS-PAGE) on the instrument MiniProtean 3 (BioRad, Herkules, Calif., USA). Samples that were loaded on the gel were first disintegrated by ultrasound, then heated at 100° C. for 2 minutes, and centrifuged for 5 minutes at 500×g at room temperature. […] Electrophoresis was performed at a constant voltage of 100 V for 10 minutes, or for 60 minutes at 150 V.
To show the presence of phosphorylated proteins in the samples, the proteins from the SDS-PAGE gel were transferred to the Immobilon™-P PVDF (polyvinylidene difluoride) membrane (Sigma-Aldrich, USA). The transfer was performed in blotting buffer at pH 8.3 (25 mmol·l^−1 Tris, 192 mmol·l^−1 glycine and 20% methanol) for 20 hours at 4° C. at a constant voltage of 30 V.
After the protein transfer to the PVDF membrane, the membranes were washed for 5 minutes in TBS washing buffer (20 mmol·l^−1 Tris, 140 mmol·l^−1 NaCl and 0.1% Tween-20) and then incubated for 1 hour in blocking buffer (TBS with 5% non-fat milk powder and 5 mmol·l^−1 Na3VO4 and 50 mmol·l^−1 NaF) at room temperature. Further, the membranes were washed three times for 5 minutes using the TBS washing buffer. The membranes were then incubated with the primary antibody against phospho-p44/42 MAPK(Thr202/Tyr204) (Cell Signaling Technology, Beverly, USA) which was diluted in blocking buffer at 1:1000. After the next three washes with the TBS washing buffer for 5 minutes, the membranes were incubated for 1 hour with rabbit secondary antibody labeled with peroxidase (Sigma, St. Louis, USA) which was diluted in blocking buffer at 1:12,000.
The membranes were then washed three times in TBS washing buffer for 5 minutes and then the solution Femto (Pierce SuperSignal, Thermo Fisher Scientific, Rockford, Ill., USA) was applied. The induced chemiluminiscence was detected by a CCD camera (LAS 3000, Fuji Photo Film GmBH, Düsseldorf, Germany).
To assess the initiation of signaling pathways, a densitometric analysis using the program Quantity One (BioRad, Hercules, Calif., USA) was used. For statistical evaluation of the statistically significant response of the cellular signaling, one-way ANOVA with subsequent Dunnett post-hoc test was used. Data was statistically significant at P<0.05.

[4] = tested on: fasted C57BL/6 mice; assay: Food intake in fasted mice after ICV administration; format: in vivo; conditions: 4 nmol/mouse; for % control: food intake vs saline
Description: Male C57BL/6 mice (An Lab, Prague 4) were bred in the accredited animal facility in the Institute of Organic Chemistry and Biochemistry, Czech Academy of Sciences, Prague, at the Institute of Molecular Genetics, Prague 4, at the temperature of 22±2° C. with access to food and water ad libitum. The day/night cycle was 12/12 hours (light turned on at 6:00 am). Animals were treated according to the Animal Protection Act (Act No. 246/1992). The males were fed standard chow diet St-1 (Mlýn Kocanda, Praha, Czech Republic) which contained 66% saccharides, 25% proteins and 9% lipids with a caloric value of 3.4 kcal/g.
The food was withdrawn 17 hours prior to injection of lipidated peptide and free access to water was maintained. The administration of saline, PrRP or lipidated analogs was performed either by SC injection at doses of 1-10 mg/kg (volume 0.2 ml/mouse), or by ICV using infusion pump (cannulae were inserted into the third brain ventricle 4 days before the experiment following the procedure of Maixnerová et al. (Maixnerová et al., 2011)). The single dose of peptide was 4 nmol/mouse (5 μl/mouse).
Fifteen minutes after the lipidated peptide administration, the mice were given pre-weighed food. The food was then weighed every 30 minutes for 5-10 hours. The administration of every dose was performed at least twice and one group of mice consisted of at least 6 mice. The results were presented as % of food intake as compared with the control group injected with saline.
Statistical evaluation was performed using program Graph-Pad Prism Software (San Diego, Calif., USA), and the one-way ANOVA with a subsequent Dunnettovým post-hoc test. The difference in food intake between mice injected with saline and mice injected with the examined peptide were considered statistically significant at P<0.05.

Row | % of PrRP31 binding [2] [%] | Compound | food intake ([1]; 45 minutes, 5 mg/kg) [g] | % control ([1]; 45 minutes, 5 mg/kg) [%] | % control ([1]; 300 minutes, 5 mg/kg) [%] | ERK signaling [3] | food intake ([4]; 45 minutes) [g] | % control ([4]; 45 minutes) [%] | food intake ([4]; 300 minutes) [g] | % control ([4]; 300 minutes) [%] | food intake ([1]; 45 minutes, 10 mg/kg) [g] | % control ([1]; 45 minutes, 10 mg/kg) [%] | food intake ([1]; 300 minutes, 10 mg/kg) [g] | % control ([1]; 300 minutes, 10 mg/kg) [%] | food intake ([1]; 300 minutes, 5 mg/kg) [g]
1 | 632 | CCCCCCCCCCCCCC(=O)N[C@H](C(=O)N1CCC[C@H]1C(=O)N[C@@H](CC(=O)O)C(=O)N[C@H](C(=O)N[C@@H](CC(N)=O)C(=O)N1CCC[C@H]1C(=O)N[C@@H](C)C(=O)N[C@@H](Cc1c[nH]c2ccccc12)C(=O)N[C@@H](Cc1ccc(O)cc1)C(=O)N[C@H](C(=O)NCC(=O)N[C@@H](CCCNC(=N)N)C(=O)NCC(=O)N[C@H](C(=O)N[C@@H](CCCNC(=N)N)C(=O)N1CCC[C@H]1C(=O)N[C@H](C(=O)NCC(=O)N[C@@H](CCCNC(=N)N)C(=O)N[C@@H](Cc1ccccc1)C(N)=O)C(C)C)[C@@H](C)CC)[C@@H](C)O)[C@@H](C)CC)[C@@H](C)O [Analog 10] (Myristoyl-TPDINPAWYTGRGIRPVGRF-NH2) | 0.11 | 32 | 44 | agonist | 0.28 | 51 | 1.1 | 86 | – | – | – | – | –
2 | 8 | CCCC[C@H](NC(=O)[C@H](CO)NC(=O)[C@H](Cc1c[nH]cn1)NC(=O)[C@H](CCC(N)=O)NC(=O)[C@H](Cc1c[nH]cn1)NC(=O)[C@H](C)NC(=O)[C@H](CCCNC(=N)N)NC(=O)[C@@H](N)CN)C(=O)N[C@@H](CCC(=O)O)C(=O)N[C@H](C(=O)N[C@@H](CCCNC(=N)N)C(=O)N[C@H](C(=O)N1CCC[C@H]1C(=O)N[C@@H](CC(=O)O)C(=O)N[C@H](C(=O)N[C@@H](CC(N)=O)C(=O)N1CCC[C@H]1C(=O)N[C@@H](C)C(=O)N[C@@H](Cc1c[nH]c2ccccc12)C(=O)N[C@@H](Cc1ccc(O)cc1)C(=O)N[C@H](C(=O)NCC(=O)N[C@@H](CCCNC(=N)N)C(=O)NCC(=O)N[C@H](C(=O)N[C@@H](CCCNC(=N)N)C(=O)N1CCC[C@H]1C(=O)N[C@H](C(=O)NCC(=O)N[C@@H](CCCNC(=N)N)C(=O)N[C@@H](Cc1cccc2ccccc12)C(N)=O)C(C)C)[C@@H](C)CC)[C@@H](C)O)[C@@H](C)CC)[C@@H](C)O)[C@@H](C)O [Analog 7] (H-[Dap]RAHQHS[Nle]ETRTPDINPAWYTGRGIRPVGR[1Nal]-NH2) | – | – | – | agonist | – | – | – | – | 0.16 | 49 | 0.88 | 81 | –
3 | 440 | CCCCCCCCCCCC(=O)NC[C@H](N)C(=O)N[C@@H](CCCNC(=N)N)C(=O)N[C@@H](C)C(=O)N[C@@H](Cc1c[nH]cn1)C(=O)N[C@@H](CCC(N)=O)C(=O)N[C@@H](Cc1c[nH]cn1)C(=O)N[C@@H](CO)C(=O)N[C@@H](CCCC)C(=O)N[C@@H](CCC(=O)O)C(=O)N[C@H](C(=O)N[C@@H](CCCNC(=N)N)C(=O)N[C@H](C(=O)N1CCC[C@H]1C(=O)N[C@@H](CC(=O)O)C(=O)N[C@H](C(=O)N[C@@H](CC(N)=O)C(=O)N1CCC[C@H]1C(=O)N[C@@H](C)C(=O)N[C@@H](Cc1c[nH]c2ccccc12)C(=O)N[C@@H](Cc1ccc(O)cc1)C(=O)N[C@H](C(=O)NCC(=O)N[C@@H](CCCNC(=N)N)C(=O)NCC(=O)N[C@H](C(=O)N[C@@H](CCCNC(=N)N)C(=O)N1CCC[C@H]1C(=O)N[C@H](C(=O)NCC(=O)N[C@@H](CCCNC(=N)N)C(=O)N[C@@H](Cc1ccccc1)C(N)=O)C(C)C)[C@@H](C)CC)[C@@H](C)O)[C@@H](C)CC)[C@@H](C)O)[C@@H](C)O [Analog 3] (H-[Dap](Lauroyl)RAHQHS[Nle]ETRTPDINPAWYTGRGIRPVGRF-NH2) | 0.12 | 50 | 60 | agonist | – | – | – | – | – | – | – | – | 0.61
4 | 172 | CCCCCCCC(=O)NC[C@H](N)C(=O)N[C@@H](CCCNC(=N)N)C(=O)N[C@@H](C)C(=O)N[C@@H](Cc1c[nH]cn1)C(=O)N[C@@H](CCC(N)=O)C(=O)N[C@@H](Cc1c[nH]cn1)C(=O)N[C@@H](CO)C(=O)N[C@@H](CCCC)C(=O)N[C@@H](CCC(=O)O)C(=O)N[C@H](C(=O)N[C@@H](CCCNC(=N)N)C(=O)N[C@H](C(=O)N1CCC[C@H]1C(=O)N[C@@H](CC(=O)O)C(=O)N[C@H](C(=O)N[C@@H](CC(N)=O)C(=O)N1CCC[C@H]1C(=O)N[C@@H](C)C(=O)N[C@@H](Cc1c[nH]c2ccccc12)C(=O)N[C@@H](Cc1ccc(O)cc1)C(=O)N[C@H](C(=O)NCC(=O)N[C@@H](CCCNC(=N)N)C(=O)NCC(=O)N[C@H](C(=O)N[C@@H](CCCNC(=N)N)C(=O)N1CCC[C@H]1C(=O)N[C@H](C(=O)NCC(=O)N[C@@H](CCCNC(=N)N)C(=O)N[C@@H](Cc1ccccc1)C(N)=O)C(C)C)[C@@H](C)CC)[C@@H](C)O)[C@@H](C)CC)[C@@H](C)O)[C@@H](C)O [Analog 2] (H-[Dap](Octanoyl)RAHQHS[Nle]ETRTPDINPAWYTGRGIRPVGRF-NH2) | – | – | – | agonist | – | – | – | – | – | – | – | – | –
